In the test the test system is mice. Description: Analgesic effect of intragastric administration on mice measured with hot-plate test. The format is in vivo, ICR mice. As to conditions: x ± s, n = 10; for pain threshold after administration / pain threshold before administration: Table 3 screening; for pain threshold after administration: 1 hour; for pain threshold before administration: group dosed 0.6 mg/kg intragastric. As for the experimental part:
The analgesic effect with a single dose of the compounds represented by Formula I is preliminarily screened at single time point through hot-plate test, with fortanodyn and aspirin as positive controls. All of the compounds are administered intragastrically.
On the basis of preliminary screening results, several representative compounds were selected to test their analgesic duration, and a part of the results is listed in Table 4. The results illustrate that the analgesic duration of most compounds is longer than 2 hours after a single oral administration, and that some of the compounds have analgesic duration lasting longer than 4 hours.
Furthermore, the dose-effect relationship on an analgesic model of two compounds was tested and the results are shown in Table 5.
Analgesic effect of intragastric administration on mice measured with hot-plate test
Female ICR mice, weight 20+2 g, were purchased from Department of Laboratory Animal Science, Beijing University, animal license number: SCXK 2002-0001.
A) Samples: samples were prepared as mixtures with 0.9% NaCl solution for intragastric administration to mice.
B) Fortanodyn: 30 mg/pill (TianJin LiSheng Pharmaceutical Co. Ltd, lot number: 0201001), 1.5 mg/mL solution was prepared with 0.9% NaCl solution for intragastric administration to mice.
1) Hot-plate test on mice was employed. A thermostatic water bath was adjusted at 55±0.5° C., the bottom of metal plates contacted water surface and used as stimuli after heating. The time span(s) from the point when the mouse was placed onto the hot-plate to the time when the mouse started to lick its metapedes was determined as its pain threshold, which was recorded by stopwatch. Female mice with a weight of 20±2 g were used. The pain threshold of every mouse was measured twice before administration, and the qualified mice are the ones whose average pain threshold was less than 30 seconds.
The qualified mice were randomly grouped with 10 mice in each group. The pain threshold before administration was determined as the basic pain threshold. To the medication administration team, drugs of different dose were given through intragastric administration, whereas to the control group, 0.9% NaCl solution was given. The administration volume was 0.2 mL for every 10 g body weight. The pain threshold of each group was measured at 1 hour after administration.
After administration the pain threshold of each group at different time was measured. The experimental data was statistically treated with t-test using SPSS10 statistics software.
In general terms: Thermal pain tests record how soon the animal reacts.

Each structure is given as a SMILES string.

Take `CC(=O)Oc1ccccc1C(=O)O` [Aspirin, reference compound]: the “pain threshold after administration” value (100 mg/kg intragastric) was found to be 18.2 ± 3.71 s. Besides, the pain-threshold after administration is listed as 18.1 ± 5.40 s (time course, 100 mg/kg intragastric, 30 min); 18.0 ± 3.80 s (time course, 100 mg/kg intragastric, 60 min); 14.0 ± 3.63 s (time course, 100 mg/kg intragastric, 120 min); 14.3 ± 3.62 s (time course, 100 mg/kg intragastric, 180 min).
In the case of `C/C=C1\[C@H]2C=C(C)C[C@]1(/N=C/C=C/c1cccc(C)c1)c1ccc(=O)[nH]c1C2` [Example 4, (5R,9R,11E)-5-(3-(3-methylphenyl)prop-2-en-1-ylideneamino)-11-ethylidene-5,6,9,10-tetrahydro-7-methyl-5,9-methanocycloocta[b]pyridin-2(1H)-one], where the note is “0.6 mg/kg intragastric”, the “pain threshold after administration” value stood at 27.0 ± 5.40 s. Where the note is “baseline”, the “pain threshold before administration” value is listed as 12.2 ± 3.31 s.
Consider `C/C=C1\[C@H]2C=C(C)C[C@]1(/N=C/C=C/c1ccccc1C)c1ccc(=O)[nH]c1C2` [Example 5, (5R,9R,11E)-5-(3-(2-methylphenyl)prop-2-en-1-ylideneamino)-11-ethylidene-5,6,9,10-tetrahydro-7-methyl-5,9-methanocycloocta[b]pyridin-2(1H)-one], for which the “pain threshold after administration” value (0.6 mg/kg intragastric) came out at 27.6 ± 6.22 s. Moreover, the “pain threshold before administration” value (baseline) is given as 12.8 ± 3.12 s.
For `C/C=C1\[C@H]2C=C(C)C[C@]1(/N=C/C=C/c1ccc(C)cc1)c1ccc(=O)[nH]c1C2` [Example 6, (5R,9R,11E)-5-(3-(4-methylphenyl)prop-2-en-1-ylideneamino)-11-ethylidene-5,6,9,10-tetrahydro-7-methyl-5,9-methanocycloocta[b]pyridin-2(1H)-one], the pain-threshold after administration runs as follows: (time course, 0.76 mg/kg intragastric, 30 min) 24.8 ± 8.77 s; (time course, 0.76 mg/kg intragastric, 60 min) 31.9 ± 7.76 s; (time course, 0.76 mg/kg intragastric, 120 min) 22.6 ± 8.37 s; (time course, 0.76 mg/kg intragastric, 180 min) 25.9 ± 11.50 s; (time course, 0.76 mg/kg intragastric, 240 min) 24.5 ± 10.55 s. Where the note is “time course, group dosed 0.76 mg/kg intragastric, baseline”, this molecule returned a pain-threshold before administration of 11.6 ± 4.14 s.
For the molecule `C/C=C1\[C@H]2C=C(C)C[C@]1(/N=C/C=C(\C)c1ccccc1)c1ccc(=O)[nH]c1C2` [Example 7, (5R,9R,11E)-5-(3-methyl-3-phenylprop-2-en-1-ylideneamino)-11-ethylidene-5,6,9,10-tetrahydro-7-methyl-5,9-methanocycloocta[b]pyridin-2(1H)-one], the “pain threshold after administration” value (0.6 mg/kg intragastric) is recorded as 24.6 ± 5.61 s. The “pain threshold before administration” value (baseline) is given as 12.4 ± 2.33 s.
`C/C=C1\[C@H]2C=C(C)C[C@]1(/N=C/C=C/C=C/c1ccccc1)c1ccc(=O)[nH]c1C2` [Example 8, (5R,9R,11E)-5-(5-phenylpenta-2,4-dien-1-ylideneamino)-11-ethylidene-5,6,9,10-tetrahydro-7-methyl-5,9-methanocycloocta[b]pyridin-2(1H)-one]: where the note is “0.6 mg/kg intragastric”, the “pain threshold after administration” value came to 23.0 ± 3.52 s.
`C/C=C1\[C@H]2C=C(C)C[C@]1(/N=C/C=C/C=C/C=C/c1ccccc1)c1ccc(=O)[nH]c1C2` [Example 9, (5R,9R,11E)-5-(7-phenylhepta-2,4,6-trien-1-ylideneamino)-11-ethylidene-5,6,9,10-tetrahydro-7-methyl-5,9-methanocycloocta[b]pyridin-2(1H)-one]: the “pain threshold after administration” value (0.6 mg/kg intragastric) was 25.8 ± 4.35 s. In addition, the “pain threshold before administration” value (baseline) is reported as 12.4 ± 2.58 s.
Turning to `C/C=C1\[C@H]2C=C(C)C[C@]1(N=CC(Br)=Cc1ccccc1)c1ccc(=O)[nH]c1C2` [Example 10, (5R,9R,11E)-5-(2-bromo-3-phenylprop-2-en-1-ylideneamino)-11-ethylidene-5,6,9,10-tetrahydro-7-methyl-5,9-methanocycloocta[b]pyridin-2(1H)-one], the “pain threshold after administration” value (0.6 mg/kg intragastric) is given as 21.0 ± 3.16 s. The “pain threshold before administration” value (baseline) is 11.8 ± 3.54 s.
Regarding `C/C=C1\[C@H]2C=C(C)C[C@]1(/N=C/C=C/c1cccc(Br)c1)c1ccc(=O)[nH]c1C2` [Example 11, (5R,9R,11E)-5-(3-(3-bromophenyl)prop-2-en-1-ylideneamino)-11-ethylidene-5,6,9,10-tetrahydro-7-methyl-5,9-methanocycloocta[b]pyridin-2(1H)-one], the “pain threshold after administration” value (0.6 mg/kg intragastric) turned out to be 23.0 ± 4.98 s. Besides, the “pain threshold before administration” value (baseline) worked out at 12.8 ± 3.12 s.
The corresponding values for `C/C=C1\[C@H]2C=C(C)C[C@]1(/N=C/C=C/c1ccccc1Br)c1ccc(=O)[nH]c1C2` [Example 12, (5R,9R,11E)-5-(3-(2-bromophenyl)prop-2-en-1-ylideneamino)-11-ethylidene-5,6,9,10-tetrahydro-7-methyl-5,9-methanocycloocta[b]pyridin-2(1H)-one] are 19.6 ± 4.03 s and 12.4 ± 2.58 s.
With `C/C=C1\[C@H]2C=C(C)C[C@]1(/N=C/C=C/c1ccc(Br)cc1)c1ccc(=O)[nH]c1C2` [Example 13, (5R,9R,11E)-5-(3-(4-bromophenyl)prop-2-en-1-ylideneamino)-11-ethylidene-5,6,9,10-tetrahydro-7-methyl-5,9-methanocycloocta[b]pyridin-2(1H)-one], the “pain threshold after administration” value (0.6 mg/kg intragastric) was 22.0 ± 4.86 s.
Take `C/C=C1\[C@H]2C=C(C)C[C@]1(/N=C/C=C/c1cccc(Cl)c1)c1ccc(=O)[nH]c1C2` [Example 15, (5R,9R,11E)-5-(3-(3-chlorophenyl)prop-2-en-1-ylideneamino)-11-ethylidene-5,6,9,10-tetrahydro-7-methyl-5,9-methanocycloocta[b]pyridin-2(1H)-one]: for the setting “0.6 mg/kg intragastric”, the “pain threshold after administration” value came out at 28.8 ± 3.92 s. For the same molecule, the “pain threshold before administration” value (baseline) is listed as 13.0 ± 3.63 s.
For the molecule `C/C=C1\[C@H]2C=C(C)C[C@]1(/N=C/C=C/c1ccccc1Cl)c1ccc(=O)[nH]c1C2` [Example 16, (5R,9R,11E)-5-(3-(2-chlorophenyl)prop-2-en-1-ylideneamino)-11-ethylidene-5,6,9,10-tetrahydro-7-methyl-5,9-methanocycloocta[b]pyridin-2(1H)-one], under “0.6 mg/kg intragastric”, the “pain threshold after administration” value was 27.4 ± 5.16 s. Besides, where the note is “baseline”, the “pain threshold before administration” value was determined as 13.2 ± 3.76 s.
In the case of `C/C=C1\[C@H]2C=C(C)C[C@]1(/N=C/C=C/c1ccc(OC)cc1)c1ccc(=O)[nH]c1C2` [Example 17, (5R,9R,11E)-5-(3-(4-methoxylphenyl)prop-2-en-1-ylideneamino)-11-ethylidene-5,6,9,10-tetrahydro-7-methyl-5,9-methanocycloocta[b]pyridin-2(1H)-one], for the setting “0.6 mg/kg intragastric”, the “pain threshold after administration” value is 24.6 ± 5.46 s. For the setting “baseline”, the “pain threshold before administration” value is on record as 12.2 ± 2.14 s.
On to `C/C=C1\[C@H]2C=C(C)C[C@]1(/N=C/C=C/c1ccccc1OC)c1ccc(=O)[nH]c1C2` [Example 18, (5R,9R,11E)-5-(3-(2-methoxylphenyl)prop-2-en-1-ylideneamino)-11-ethylidene-5,6,9,10-tetrahydro-7-methyl-5,9-methanocycloocta[b]pyridin-2(1H)-one], for which, for the setting “0.6 mg/kg intragastric”, the “pain threshold after administration” value came out at 26.0 ± 5.01 s. In addition, the “pain threshold before administration” value (baseline) is 13.0 ± 3.03 s.
In the case of `C/C=C1\[C@H]2C=C(C)C[C@]1(/N=C/C=C/c1cccc(OC)c1)c1ccc(=O)[nH]c1C2` [Example 19, (5R,9R,11E)-5-(3-(3-methoxylphenyl)prop-2-en-1-ylideneamino)-11-ethylidene-5,6,9,10-tetrahydro-7-methyl-5,9-methanocycloocta[b]pyridin-2(1H)-one], for the setting “0.6 mg/kg intragastric”, the “pain threshold after administration” value was 18.6 ± 3.44 s. Moreover, the “pain threshold before administration” value (baseline) is recorded as 12.0 ± 2.53 s.

The record behind these values is US8053577B2, “Derivatives of 5,9-methanocycloocta[b]pyridin-2-(1H)-one, their preparation and use as analgesics” (priority 2006, dated 2011).
